Paper PMC7856678 (Bioorganic & medicinal chemistry, 2021)

Assays:
TZM-bl/H9-HIV-1IIIB = experiment: Cell-to-Cell HIV-1 transmission, CXCR4-tropic assay; format: cell-based; conditions: Human immunodeficiency virus 1, TZM-bl
TZM-bl/Molt-HIV-1ADA = experiment: Cell-to-Cell HIV-1 transmission, CCR5-tropic assay; format: cell-based; conditions: Human immunodeficiency virus 1, TZM-bl
Cytotoxicity [1] = format: cell-based; conditions: human, TZM-bl cells
Cytotoxicity [2] = format: cell-based; conditions: human, U87-CD4-CXCR4 cells
VSV-G pseudovirus = experiment: microbe, parasite or virus in culture; format: cell-based
[3] = Solubility of compounds for antiviral/cytotoxicity testing; format: physicochemical; conditions: assays could not be performed
U87-CD4-CXCR4 cells = conditions: cells of VSV-G assay; cited from earlier work
TZM-bl cells = conditions: cited from earlier work

COc1cnc(-n2cnc(C)n2)c2[nH]cc(C(=O)C(=O)N3CCN(C(=O)c4ccccc4)CC3)c12 [BMS-626529]
IC50 (TZM-bl/H9-HIV-1IIIB): 20 ± 5 nM
IC50 (TZM-bl/Molt-HIV-1ADA): ~200 nM

N#Cc1ccc(-c2ccc(C(=O)N[C@@H](CN)c3nc(CO)cs3)[nH]2)cc1 [Compound 4, N-(2-Amino-1-(4-(hydroxymethyl)thiazol-2-yl)ethyl)-5-(4-cyanophenyl)-1H-pyrrole-2-carboxamide]
CC50 at 3 days (Cytotoxicity [1]): > 82 µM

NC[C@H](NC(=O)c1ccc(-c2cc(F)c(Cl)c(F)c2)[nH]1)c1nc(CCO)cs1 [Compound 9, N-(2-Amino-1-(4-(2-hydroxyethyl)thiazol-2-yl)ethyl)-5-(4-chloro-3,5-difluorophenyl)-1H-pyrrole-2-carboxamide]
CC50 at 72 h (Cytotoxicity [1]): 32.8 ± 1 µM

NC[C@H](NC(=O)c1ccc(-c2ccc(C(F)(F)F)cc2F)[nH]1)c1nc(CCO)cs1 [Compound 13, N-(2-Amino-1-(4-(2-hydroxyethyl)thiazol-2-yl)ethyl)-5-(2-fluoro-4-(trifluoromethyl)phenyl)-1H-pyrrole-2-carboxamide]
CC50 at 3 days (Cytotoxicity [2]): 33.5 ± 0.6 µM
IC50 (VSV-G pseudovirus): 11.9 ± 0.5 µM

NC[C@H](NC(=O)c1ccc(-c2ccc(C(F)(F)F)c(F)c2)[nH]1)c1nc(C(=O)O)cs1 [Compound 21, 2-[2-Amino-1-[[5-[3-fluoro-4-(trifluoromethyl)phenyl]-1H-pyrrole-2-carbonyl]amino]ethyl]thiazole-4-carboxylic acid]
Solubility [3]: Not soluble

NC[C@@H](NC(=O)c1ccc(-c2ccc(C(F)(F)F)c(F)c2)[nH]1)c1nc(C(=O)O)cs1 [Compound 22, 2-[2-Amino-1-[[5-[3-fluoro-4-(trifluoromethyl)phenyl]-1H-pyrrole-2-carbonyl]amino]ethyl]thiazole-4-carboxylic acid]
Solubility [3]: Not soluble

NC[C@@H](NC(=O)c1ccc(-c2ccc(C(F)(F)F)cc2)[nH]1)c1ncc(CO)s1 [NBD-14136]
CC50 (U87-CD4-CXCR4 cells): 46.3 ± 10.6 µM
CC50 (TZM-bl cells): 42.4 ± 1 µM
